The text below walks through data of article PMC2949283 (The Biochemical journal, 2009).

Holding throughout (format): biochemical
One experiment has as its target F295A HuAChE (Homo sapiens, UniProt P22303, F326A). The experiment can be described thus: HuAChE inhibition kinetics.
The target in a further experiment is F295A/F297A HuAChE (Homo sapiens, UniProt P22303, F326A/F328A). The experiment can be described thus: HuAChE inhibition kinetics.
For another experiment, the target named is W86A/Y337A HuAChE (Homo sapiens, UniProt P22303, W117A/Y368A). Kind of experiment: biochemical.
W86A/Y337A HuAChE, sequence (P22303 32-614 W117A/Y368A): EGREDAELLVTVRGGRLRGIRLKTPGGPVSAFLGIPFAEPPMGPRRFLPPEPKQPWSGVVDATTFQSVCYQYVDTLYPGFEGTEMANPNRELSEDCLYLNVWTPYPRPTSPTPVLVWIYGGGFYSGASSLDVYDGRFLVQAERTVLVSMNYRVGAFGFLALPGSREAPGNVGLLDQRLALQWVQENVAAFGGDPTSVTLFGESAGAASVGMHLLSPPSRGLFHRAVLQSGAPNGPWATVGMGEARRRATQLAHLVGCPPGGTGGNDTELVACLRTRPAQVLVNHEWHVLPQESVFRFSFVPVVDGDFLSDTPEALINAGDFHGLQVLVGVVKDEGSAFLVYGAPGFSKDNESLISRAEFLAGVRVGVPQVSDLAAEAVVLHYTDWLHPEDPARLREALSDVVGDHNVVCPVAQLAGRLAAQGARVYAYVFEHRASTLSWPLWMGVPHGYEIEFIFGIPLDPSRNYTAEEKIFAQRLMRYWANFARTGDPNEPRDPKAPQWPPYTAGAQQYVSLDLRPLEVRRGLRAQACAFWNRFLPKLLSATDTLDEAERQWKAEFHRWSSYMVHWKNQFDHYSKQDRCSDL
Another experiment addresses Wild Type HuAChE (Homo sapiens, UniProt P22303). Kind of experiment: HuAChE inhibition kinetics.
The next experiment has as its target Y133A HuAChE (Homo sapiens, UniProt P22303, Y164A). Kind of experiment: HuAChE inhibition kinetics.
In the next experiment the target is F297A HuAChE (Homo sapiens, UniProt P22303, F328A). Kind of experiment: HuAChE inhibition kinetics.
F297A HuAChE, sequence (P22303 32-614 F328A): as the sequence (P22303 32-614 W117A/Y368A) above, with A86W, F297A, A337Y counted along it
In a further experiment the target is F338A HuAChE (Homo sapiens, UniProt P22303, F369A). Kind of experiment: HuAChE inhibition kinetics.
F338A HuAChE, sequence (P22303 32-614 F369A): as the sequence (P22303 32-614 W117A/Y368A) above, with A86W, A337Y, F338A counted along it
The target of another experiment is Y337A HuAChE (Homo sapiens, UniProt P22303, Y368A). Kind of experiment: HuAChE inhibition kinetics.
Y337A HuAChE, sequence (P22303 32-614 Y368A): as the sequence (P22303 32-614 W117A/Y368A) above, with A86W counted along it
The target in another experiment is W86A HuAChE (Homo sapiens, UniProt P22303, W117A). Kind of experiment: HuAChE inhibition kinetics.
W86A HuAChE, sequence (P22303 32-614 W117A): as the sequence (P22303 32-614 W117A/Y368A) above, with A337Y counted along it
Another experiment deals with E202A HuAChE (Homo sapiens, UniProt P22303, E233A). Kind of experiment: HuAChE inhibition kinetics.
E202A HuAChE, sequence (P22303 32-614 E233A): as the sequence (P22303 32-614 W117A/Y368A) above, with A86W, E202A, A337Y counted along it
Another experiment concerns the target E202Q HuAChE (Homo sapiens, UniProt P22303, E233Q). The experiment can be described thus: HuAChE inhibition kinetics.
In a further experiment the target is HuBChE-Wild Type (Homo sapiens, UniProt P06276). The experiment can be described thus: HuBChE inhibition kinetics. To be noted: for k2, carbamylation rate constant: HuBChE-Wild Type.
HuBChE-Wild Type, sequence (P06276 29-602): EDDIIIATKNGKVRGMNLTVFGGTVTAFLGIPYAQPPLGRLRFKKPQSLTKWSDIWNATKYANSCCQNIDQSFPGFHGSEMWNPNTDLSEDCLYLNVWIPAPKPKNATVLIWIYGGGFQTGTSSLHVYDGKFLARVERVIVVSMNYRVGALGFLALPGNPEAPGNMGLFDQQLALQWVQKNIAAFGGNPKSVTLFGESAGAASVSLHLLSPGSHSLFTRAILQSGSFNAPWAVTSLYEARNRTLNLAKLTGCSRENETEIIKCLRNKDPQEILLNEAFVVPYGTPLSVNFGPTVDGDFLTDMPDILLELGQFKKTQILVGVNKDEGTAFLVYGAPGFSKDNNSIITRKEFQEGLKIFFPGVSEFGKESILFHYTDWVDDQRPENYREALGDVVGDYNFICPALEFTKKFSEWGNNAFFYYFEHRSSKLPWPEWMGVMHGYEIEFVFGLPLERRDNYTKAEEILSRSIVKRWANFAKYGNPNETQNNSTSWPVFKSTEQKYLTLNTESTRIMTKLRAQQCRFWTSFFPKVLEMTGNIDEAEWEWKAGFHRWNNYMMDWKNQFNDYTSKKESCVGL
The target in experiment [1] is Y72N/Y124Q/W286A/ F295L/F297V/Y337A/ V407F HuAChE (Homo sapiens, UniProt P22303, F326L/F328V/V438F/W317A/Y103N/Y155Q/Y368A). Kind of experiment: HuAChE inhibition kinetics.
Y72N/Y124Q/W286A/ F295L/F297V/Y337A/ V407F HuAChE, sequence (P22303 32-614 Y103N/Y155Q/W317A/F326L/F328V/Y368A/V438F): as the sequence (P22303 32-614 W117A/Y368A) above, with Y72N, A86W, Y124Q, W286A, F295L, F297V, V407F counted along it
The next experiment concerns the target E450A HuAChE (Homo sapiens, UniProt P22303, E481A). Kind of experiment: HuAChE inhibition kinetics.
The target in another experiment is F295L/F297V/Y337A HuAChE (Homo sapiens, UniProt P22303, F326L/F328V/Y368A). Kind of experiment: HuAChE inhibition kinetics.
F295L/F297V/Y337A HuAChE, sequence (P22303 32-614 F326L/F328V/Y368A): as the sequence (P22303 32-614 W117A/Y368A) above, with A86W, F295L, F297V counted along it
The next experiment addresses Y72N HuAChE (Homo sapiens, UniProt P22303, Y103N). Kind of experiment: HuAChE inhibition kinetics.
A further experiment concerns the target F295A/F338A HuAChE (Homo sapiens, UniProt P22303, F326A/F369A). Kind of experiment: HuAChE inhibition kinetics.
Another experiment deals with F295L/F297V HuAChE (Homo sapiens, UniProt P22303, F326L/F328V). Kind of experiment: HuAChE inhibition kinetics.
F295L/F297V HuAChE, sequence (P22303 32-614 F326L/F328V): as the sequence (P22303 32-614 W117A/Y368A) above, with A86W, F295L, F297V, A337Y counted along it
Experiment [2] addresses Y72N/Y124Q/W286A/ F295L/F297V/Y337A HuAChE (Homo sapiens, UniProt P22303, F326L/F328V/W317A/Y103N/Y155Q/Y368A). The experiment can be described thus: HuAChE inhibition kinetics.
A further experiment concerns the target W86F HuAChE (Homo sapiens, UniProt P22303, W117F). The experiment can be described thus: HuAChE inhibition kinetics.
The target in the next experiment is W286A HuAChE (Homo sapiens, UniProt P22303, W317A). Kind of experiment: HuAChE inhibition kinetics.
W286A HuAChE, sequence (P22303 32-614 W317A): as the sequence (P22303 32-614 W117A/Y368A) above, with A86W, W286A, A337Y counted along it
Another experiment deals with Y133F HuAChE (Homo sapiens, UniProt P22303, Y164F). The experiment can be described thus: HuAChE inhibition kinetics.
Y133F HuAChE, sequence (P22303 32-614 Y164F): as the sequence (P22303 32-614 W117A/Y368A) above, with A86W, Y133F, A337Y counted along it
The next experiment concerns the target F295A/F338A/V407F HuAChE (Homo sapiens, UniProt P22303, F326A/F369A/V438F). The experiment can be described thus: HuAChE inhibition kinetics.
The target in the next experiment is D74N HuAChE (Homo sapiens, UniProt P22303, D105N). Kind of experiment: HuAChE inhibition kinetics.
D74N HuAChE, sequence (P22303 32-614 D105N): as the sequence (P22303 32-614 W117A/Y368A) above, with D74N, A86W, A337Y counted along it
The target in the next experiment is Y341A HuAChE (Homo sapiens, UniProt P22303, Y372A). Kind of experiment: HuAChE inhibition kinetics.
Y341A HuAChE, sequence (P22303 32-614 Y372A): as the sequence (P22303 32-614 W117A/Y368A) above, with A86W, A337Y, Y341A counted along it
In another experiment the target is Y337F HuAChE (Homo sapiens, UniProt P22303, Y368F). Kind of experiment: HuAChE inhibition kinetics.
Y337F HuAChE, sequence (P22303 32-614 Y368F): as the sequence (P22303 32-614 W117A/Y368A) above, with A86W, A337F counted along it
Setting [3] is: read-out: Kd, Michaelis complex (Eq. 1), Y133A HuAChE, NI = No inhibition between […]10^−6- […]10^−4M.
Where [4] appears, read: read-out: Kd, noncovalent inhibition (competition with ATC), Wild Type HuAChE.
Where [5] appears, read: read-out: Kd, noncovalent inhibition (competition with ATC), F338A HuAChE.
The mark [6] stands for this setting: read-out: Kd, noncovalent inhibition (competition with ATC), Y337A HuAChE.
Where [7] appears, read: read-out: Kd, noncovalent inhibition (competition with ATC), W86A HuAChE.

Read-outs that look alike come from different tables or passages of the source.

Wild Type HuAChE, sequence (P22303 32-614): as the sequence (P22303 32-614 W117A/Y368A) above, with A86W, A337Y counted along it
F295A HuAChE, sequence (P22303 32-614 F326A): as the sequence (P22303 32-614 W117A/Y368A) above, with A86W, F295A, A337Y counted along it
Y133A HuAChE, sequence (P22303 32-614 Y164A): as the sequence (P22303 32-614 W117A/Y368A) above, with A86W, Y133A, A337Y counted along it
F295A/F297A HuAChE, sequence (P22303 32-614 F326A/F328A): as the sequence (P22303 32-614 W117A/Y368A) above, with A86W, F295A, F297A, A337Y counted along it
E202Q HuAChE, sequence (P22303 32-614 E233Q): as the sequence (P22303 32-614 W117A/Y368A) above, with A86W, E202Q, A337Y counted along it
Y72N HuAChE, sequence (P22303 32-614 Y103N): as the sequence (P22303 32-614 W117A/Y368A) above, with Y72N, A86W, A337Y counted along it
E450A HuAChE, sequence (P22303 32-614 E481A): as the sequence (P22303 32-614 W117A/Y368A) above, with A86W, A337Y, E450A counted along it
F295A/F338A/V407F HuAChE, sequence (P22303 32-614 F326A/F369A/V438F): as the sequence (P22303 32-614 W117A/Y368A) above, with A86W, F295A, A337Y, F338A, V407F counted along it
W86F HuAChE, sequence (P22303 32-614 W117F): as the sequence (P22303 32-614 W117A/Y368A) above, with A86F, A337Y counted along it
F295A/F338A HuAChE, sequence (P22303 32-614 F326A/F369A): as the sequence (P22303 32-614 W117A/Y368A) above, with A86W, F295A, A337Y, F338A counted along it
Y72N/Y124Q/W286A/ F295L/F297V/Y337A HuAChE, sequence (P22303 32-614 Y103N/Y155Q/W317A/F326L/F328V/Y368A): as the sequence (P22303 32-614 W117A/Y368A) above, with Y72N, A86W, Y124Q, W286A, F295L, F297V counted along it

As for `CNC(=O)Oc1ccc2c(c1)[C@]1(C)CCO[C@@H]1N2C` [(−)-Physovenine, physovenine], the Kd on F295A HuAChE was 100 ± 27 nM; at F295A/F297A HuAChE (Kd, Michaelis complex (Eq. 1)), 230 ± 70 nM; on W86A/Y337A HuAChE it was 413000 ± 85000 nM; on Wild Type HuAChE, 430 ± 90 nM; at Y133A HuAChE (setting [3]) it was above 250000 nM; at F297A HuAChE, 630 ± 40 nM. Also, the equilibrium dissociation constant (Kd) on F338A HuAChE worked out at 2560 ± 600 nM; at Y337A HuAChE it was 850 ± 200 nM; on W86A HuAChE, 120000 ± 24000 nM.
Consider `CN1CC[C@@]2(C)c3cc(OC(=O)Nc4ccccc4)ccc3N(C)[C@@H]12` [(−)-Phenserine, phenserine], for which the Kd is 90 ± 40 nM at F295A HuAChE; 9100 ± 3600 nM at E202A HuAChE; 17400 ± 3400 nM on E202Q HuAChE; 9000 ± 3000 nM on HuBChE-Wild Type; 20300 ± 6100 nM in experiment [1]; 2800 ± 800 nM at F295A/F297A HuAChE (Kd, Michaelis complex (Eq. 1)). The Kd at E450A HuAChE stood at 7400 ± 1900 nM; on F295L/F297V/Y337A HuAChE, 300 ± 6 nM; on Y72N HuAChE it was 740 ± 190 nM; at Wild Type HuAChE, 1390 ± 550 nM; on F295A/F338A HuAChE it was 30 ± 8 nM; at Y133A HuAChE, 76000 ± 15000 nM. Further, the Kd on F295L/F297V HuAChE was 800 ± 360 nM; in experiment [2], 120 ± 30 nM; on W86F HuAChE, 870 ± 340 nM; on W286A HuAChE, 160 ± 30 nM; on Y133F HuAChE, 7600 ± 1900 nM; on F338A HuAChE it was 41300 ± 9500 nM. In addition, the Kd at F295A/F338A/V407F HuAChE was 27200 ± 5500 nM; on D74N HuAChE, 3400 ± 610 nM; on Y341A HuAChE, 690 ± 210 nM; at Y337A HuAChE, 2750 ± 280 nM; at Y337F HuAChE it was 280 ± 30 nM; on W86A HuAChE, 20000 ± 9000 nM. For the same compound, the “k2, carbamylation rate constant” value was found to be 2.1 ± 1.2 min⁻¹ at F295A HuAChE (F295A HuAChE); 0.2 ± 0.1 min⁻¹ at E202A HuAChE (E202A HuAChE); 3.2 ± 1 min⁻¹ at E202Q HuAChE (E202Q HuAChE); 0.6 ± 0.2 min⁻¹ on HuBChE-Wild Type; 8.5 ± 2.5 min⁻¹ on F295A/F297A HuAChE; 0.2 ± 0.04 min⁻¹ on E450A HuAChE (E450A HuAChE). Also, the “k2, carbamylation rate constant” value at F295L/F297V/Y337A HuAChE (F295L/F297V/Y337A HuAChE) was determined as 0.9 ± 0.2 min⁻¹; on Y72N HuAChE (Y72N HuAChE) it was 1.7 ± 0.2 min⁻¹; on Wild Type HuAChE (Wild Type HuAChE) it was 0.9 ± 0.5 min⁻¹; at Y133A HuAChE (Y133A HuAChE) it was 0.4 ± 0.06 min⁻¹; at F295L/F297V HuAChE (F295L/F297V HuAChE) it was 3.0 ± 1.8 min⁻¹; on F297A HuAChE (F297A HuAChE) it was 1.0 ± 0.5 min⁻¹. In addition, the “k2, carbamylation rate constant” value is 1.3 ± 0.9 min⁻¹ at W86F HuAChE (W86F HuAChE); 0.3 ± 0.09 min⁻¹ on Y133F HuAChE (Y133F HuAChE); 0.7 ± 0.1 min⁻¹ at F338A HuAChE (F338A HuAChE); 0.3 ± 0.1 min⁻¹ at F295A/F338A/V407F HuAChE (F295A/F338A/V407F HuAChE); 0.7 ± 0.01 min⁻¹ at D74N HuAChE (D74N HuAChE); 0.7 ± 0.3 min⁻¹ at Y341A HuAChE (Y341A HuAChE). The entries for the “k2, carbamylation rate constant” value at Y337A HuAChE (Y337A HuAChE), at Y337F HuAChE (Y337F HuAChE) and on W86A HuAChE (W86A HuAChE) were 0.8 ± 0.4 min⁻¹, 0.9 ± 0.07 min⁻¹ and 1.3 ± 1.0 min⁻¹, respectively.
As for `CC(C)c1ccc(NC(=O)Oc2ccc3c(c2)C2(C)CCOC2N3C)cc1` (single isomer, unassigned; (+)) [(+)-Cymyl carbamate of physovenol, cymyl carbamate of physovenol], the Kd on Wild Type HuAChE (setting [4]) amounted to 1000 ± 200 nM; on F338A HuAChE (setting [5]) it was 57100 ± 15000 nM; at Y337A HuAChE (setting [6]), 2200 ± 700 nM; at W86A HuAChE (setting [7]), 5000 ± 1300 nM.
On to physovenine [(+)-Physovenine], for which the Kd at F295A HuAChE (read-out: Kd, Michaelis complex (Eq. 1), F295A HuAChE) is 90 ± 25 nM; at F295A/F297A HuAChE (read-out: Kd, Michaelis complex (Eq. 1)) it was 280 ± 80 nM; at W86A/Y337A HuAChE (read-out: Kd, Michaelis complex (Eq. 1), […], Table 3: Activity measured with TB), 281000 ± 45000 nM; on Wild Type HuAChE (read-out: Kd, Michaelis complex (Eq. 1), Wild Type HuAChE), 1400 ± 130 nM; on Y133A HuAChE (setting [3]) it was above 250000 nM; on F297A HuAChE (read-out: Kd, Michaelis complex (Eq. 1), F297A HuAChE), 1000 ± 350 nM. Moreover, the Kd on F338A HuAChE (read-out: Kd, Michaelis complex (Eq. 1), F338A HuAChE) amounted to 700 ± 100 nM; on Y337A HuAChE (read-out: Kd, Michaelis complex (Eq. 1), Y337A HuAChE) it was 15000 ± 1600 nM; at W86A HuAChE (read-out: Kd, Michaelis complex (Eq. 1), W86A HuAChE), 280000 ± 28500 nM.
`CC(C)c1ccc(NC(=O)Oc2ccc3c(c2)C2(C)CCOC2N3C)cc1` (single isomer, unassigned; (-)) [(−)-Cymyl carbamate of physovenol, cymyl carbamate of physovenol]: the Kd on Wild Type HuAChE (setting [4]) came to 710 ± 120 nM; at F338A HuAChE (setting [5]), 40000 ± 12000 nM; on Y337A HuAChE (setting [6]), 2700 ± 1000 nM; on W86A HuAChE (setting [7]) it was 2500 ± 200 nM.
Consider `CC(C)c1ccc(NC(=O)Oc2ccc3c(c2)[C@]2(C)CCN(C)[C@@H]2N3C)cc1` [(−)Cymserine, cymserine], for which, on Wild Type HuAChE (HuAChE enzymes), the mode of inhibition result was “noncovalent inhibitor”.
On to `CCN(C)C(=O)Oc1cccc([C@H](C)N(C)C)c1` [Rivastigmine, rivastigmine], for which, at HuBChE-Wild Type (HuBChE vs HuAChE), the “k2 higher than for HuAChE” value is 9 fold and the “reactivity toward HuBChE higher than toward HuAChE” value came out at 15 fold. The “k2, carbamylation rate constant” value at HuBChE-Wild Type was determined as 0.90 ± 0.03 min⁻¹.
